{
  "source": "ChEMBL document CHEMBL1136931",
  "about": "“Discovery of low nanomolar and subnanomolar inhibitors of the mycobacterial beta-carbonic anhydrases Rv1284 and Rv3273” (J Med Chem, 2009)",
  "key": {"Carbonic anhydrase 1": {"molecular_target": "Carbonic anhydrase 1 (Homo sapiens, UniProt P00915)", "sequence (P00915 whole entry)": "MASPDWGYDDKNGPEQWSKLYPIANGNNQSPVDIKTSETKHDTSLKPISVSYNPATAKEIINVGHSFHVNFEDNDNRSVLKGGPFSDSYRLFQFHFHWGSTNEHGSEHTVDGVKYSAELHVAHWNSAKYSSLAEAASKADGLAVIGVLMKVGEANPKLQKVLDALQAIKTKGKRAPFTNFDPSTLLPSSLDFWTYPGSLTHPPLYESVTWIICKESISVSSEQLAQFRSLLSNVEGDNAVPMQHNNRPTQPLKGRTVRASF"}, "Carbonic anhydrase 2": {"molecular_target": "Carbonic anhydrase 2 (Homo sapiens, UniProt P00918)"}, "[1]": {"molecular_target": "T1, Beta-carbonic anhydrase 1 (Mycobacterium tuberculosis, UniProt P9WPJ7)", "T1 sequence (P9WPJ7 whole entry)": "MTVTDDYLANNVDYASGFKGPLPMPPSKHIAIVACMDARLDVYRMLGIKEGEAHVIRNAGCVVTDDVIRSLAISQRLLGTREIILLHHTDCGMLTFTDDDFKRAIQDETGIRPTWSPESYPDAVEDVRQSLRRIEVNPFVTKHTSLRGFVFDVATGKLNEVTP"}},
  "data": [
    {"smiles": "NS(=O)(=O)c1ccc(S(=O)(=O)Nc2cccc3c(Cl)c[nH]c23)cc1", "values": [
      {"measurement": "Ki", "setting": "Carbonic anhydrase 1", "result": 97, "unit": "nM"}
    ]},
    {"smiles": "NC(=O)c1[nH]c2ccc(S(N)(=O)=O)cc2c1-c1ccccc1", "values": [
      {"measurement": "Ki", "setting": "Carbonic anhydrase 1", "result": 48, "unit": "nM"},
      {"measurement": "Ki", "setting": "Carbonic anhydrase 2", "result": 31, "unit": "nM"},
      {"measurement": "Ki", "setting": "[1]", "result": 7.5, "unit": "nM"}
    ]}
  ]
}
